Patent US12403167B2, “Phenylethanoid glycoside extract from Acanthus ilicifolius L., preparation method thereof and use as anti-liver injury medicament” (OCEAN UNIVERSITY OF CHINA, priority 2019, dated 2025)

Legend:
[1] = test system: CCl4-induced acute liver injury mice; assay: Serum ALT, AST, SOD and MDA in CCl4-induced liver injury mice; format: in vivo; settings: 150 mg/kg once/d for 3 days before CCl4; blood 8 h after CCl4; n = 8, x ± s
Procedure: (§1) Forty eight C57 mice (20-22 g) of both genders were supplied by the Experimental Animal Center of Hubei Province, China (NO. 42000600033017). The above 48 mice were randomly divided into 6 groups (8 mice each group), and the phenylethanoid glycoside extract of the present disclosure (the phenylethanoid glycoside group, APhGs) were intraperitoneally injected with the doses of 300 mg/kg (high dose group), 150 mg/kg (medium dose group), and 75 mg/kg (low dose group). The positive group was given silybin (150 mg/kg), and the normal group, as well as model group was given normal saline. All groups were treated as above once/d for 3 consecutive days. Two hours after the last administration, the normal group was intraperitoneally injected with 15 μL of olive oil/mouse, and the other groups were intraperitoneally injected with 15 μL of 50% CCl4 (diluted with olive oil 1:1)/mouse. Eight hours later, all the mice were anesthetized. Then blood was collected by cardiac puncture, and liver tissue was collected for testing biochemical indexes and making pathological sections.
The detection of alanine aminotransferase (ALT) and aspartate aminotransferase (AST) of serum samples from each group mice were conducted according to the instructions of ELISA kit for ALT and AST. The absorbances (OD values) of serum ALT and AST at 450 nm were obtained by a microplate reader. The ALT and AST enzyme activities were calculated based on the OD values.
The detection of superoxide dismutase (SOD) and malondialdehyde (MDA) of serum samples from each group of mice were conducted according to the instructions of ELISA kit for SOD and MDA. The OD values of serum SOD at 550 nm and MDA at 532 nm were obtained by a microplate reader, respectively. The SOD and MDA enzyme activities were calculated based on the OD values.
Immunohistochemical analysis software: Image-pro plus 6.0 (Media Cybernetics, Inc., Rockville, MD, USA); experimental data statistical software: GraphPad Prism 7. The results were represented by mean values ±standard deviation (x±s). The difference P<0.05 meant statistically significant.

[2] = test system: CCl4-induced acute liver injury mice; assay: SOD and MDA in liver tissue homogenate of CCl4-induced liver injury mice; format: in vivo; settings: 150 mg/kg once/d for 3 days before CCl4; liver 8 h after CCl4; n = 8, x ± s
Procedure: as §1, with “Then blood was collected by cardiac puncture, and liver tissue was collected for testing biochemical indexes and making pathological sections.” left out
The detection of SOD and MDA of liver homogenate samples from each group mice were conducted according to the instructions of ELISA kit for SOD and MDA. The OD values of liver SOD at 550 nm and MDA at 532 nm were obtained by a microplate reader, respectively. The SOD and MDA enzyme activities were calculated based on the OD values. […]

[3] = test system: L-02 hepatocytes; assay: CCl4-induced L-02 hepatocyte damage, CCK-8 cell viability; format: cell-based; settings: 20 μg/mL, 15 mM CCl4, 24 h, CCl4 model group 24.22±0.33%
Procedure: L-02 hepatocytes were provided by the China Center for Type Culture Collection (CCTCC). The L-02 hepatocytes were cultured in a medium containing 1640 complete culture medium and DMEM complete medium with 5% CO2 at a constant temperature (37° C.). The cells were harvested in the exponential growth phase. A suspension of 1×10^6 cells/mL was prepared, and then 100 μL of this suspension was added to each well of a 96-well plate with tested medium. The groups were divided into: normal group, negative control group, CCl4 model group, positive group (silybin), and high-, medium-, and low-dosage APhGs groups. After incubation for 24 h, the cells in the experimental group and the positive group were treated with different concentrations of APhGs and silybin. Both the CCl4 model group and the negative control group were added with the same amount of DMSO. Each treatment was repeated five times. […]
Determination of cell viability: 10 μL of CCK8 was added to each well to incubate at 37° C. for 2 h. The culture plates were measured with a microplate reader to obtain the absorbances at 450 nm. The cell viability values were calculated by the following formula: Cell viability (%)=(ODsample−ODblank)×100/(ODcontrol−ODblank)
ODsample was the absorbance of the experimental group, ODcontrol was the absorbance of the negative control group, ODblank was the absorbance of the blank control.

COc1cc(C2Oc3cc([C@H]4Oc5cc(O)cc(O)c5C(=O)[C@@H]4O)ccc3OC2CO)ccc1O (stereo partly shown) [Positive group, silybin]
serum ALT [1]: 736.27 U/L | serum AST [1]: 776.68 U/L | serum MDA [1]: 8.32 µM | serum SOD [1]: 743.47 U/mL | liver tissue MDA [2]: 0.56 ± 0.08 nmol/mg prot | liver tissue SOD [2]: 610.91 U/mg prot | cell survival rate [3]: 35.92±2.15%
